Data on two molecules can be found in US20230398087A1, “APPLICATION OF BZP IN TREATMENT OF ISCHEMIC CARDIOVASCULAR AND CEREBRAL VASCULAR DISEASES” (priority 2020, published 2023).

Molecules are shown by their SMILES.

The subject of the assay is acute global cerebral ischemia in rats. As to the kind of experiment: Acute global cerebral ischemia in rats, volume of cerebral infarction (nuclear magnetic resonance). Particulars: BZP 0.75, 3, 12 and 24 mg/kg; Br-NBP 10.5 mg/kg; NBP-K 9.6 mg/kg; vs model group. It is filed as in vivo. The source says: 2.7 The Protective Effect of BZP on Acute Global Cerebral Ischemia in Rats: […]

Consider `CCCCC1OC(=O)c2cc(Br)ccc21` (centres unmarked) [Br-NBP, reference compound], for which the “volume of cerebral infarction” value is “significantly reduce”.

For `CCCCC(O)c1ccccc1C(=O)[O-].[K+]` (centres unmarked) [NBP-K, reference compound], the “volume of cerebral infarction” value is on record as “significantly reduce”.
